From PMC9005971, “Discovery of 2-(4-Acrylamidophenyl)-Quinoline-4-Carboxylic Acid Derivatives as Potent SIRT3 Inhibitors” (Frontiers in Chemistry, 2022)

Key:
[1] = target: T1, SIRT1 (Homo sapiens, UniProt Q96EB6); assay: SIRT1 enzyme inhibitory assay (fluorescence); format: biochemical; settings: for activity at 0.01 µM / activity at 0.033 µM / activity at 0.1 µM / activity at 0.333 µM / activity at 1 µM / activity at 3.3 µM / activity at 10 µM / activity at 33 µM / activity at 100 µM: SIRT1 enzyme activity; for activity at 0.01 µM: 10 nM; for activity at 0.033 µM: 33 nM; for activity at 0.1 µM: 100 nM; for activity at 0.333 µM: 333 nM
T1 sequence (Q96EB6 1-747): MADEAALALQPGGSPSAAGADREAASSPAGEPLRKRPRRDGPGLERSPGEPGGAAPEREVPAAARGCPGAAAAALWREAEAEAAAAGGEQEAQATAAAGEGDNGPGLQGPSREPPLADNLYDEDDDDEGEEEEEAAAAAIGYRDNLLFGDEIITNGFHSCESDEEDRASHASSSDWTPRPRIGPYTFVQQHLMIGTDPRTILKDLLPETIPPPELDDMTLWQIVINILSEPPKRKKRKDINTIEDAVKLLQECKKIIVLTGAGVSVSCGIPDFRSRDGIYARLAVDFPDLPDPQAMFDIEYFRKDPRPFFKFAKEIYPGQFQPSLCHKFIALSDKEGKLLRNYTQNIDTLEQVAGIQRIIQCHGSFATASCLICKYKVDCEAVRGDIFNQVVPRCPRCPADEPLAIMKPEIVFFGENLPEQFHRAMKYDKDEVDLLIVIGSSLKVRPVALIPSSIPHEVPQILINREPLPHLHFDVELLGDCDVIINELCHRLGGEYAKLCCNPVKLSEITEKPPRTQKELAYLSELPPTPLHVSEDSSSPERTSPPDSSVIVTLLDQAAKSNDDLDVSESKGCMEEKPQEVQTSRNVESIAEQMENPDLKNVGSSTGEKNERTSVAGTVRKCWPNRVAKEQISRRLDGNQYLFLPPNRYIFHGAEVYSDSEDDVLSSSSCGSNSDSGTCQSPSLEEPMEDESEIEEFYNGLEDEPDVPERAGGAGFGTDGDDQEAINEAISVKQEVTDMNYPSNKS
Protocol: (§1) All of the enzymatic reactions were conducted at 37°C for 30 min. […] The compounds were diluted in 10% DMSO and 5 ul of the dilution was added to each reaction mixture (50 ul). The assay was performed by quantitating the amount of fluorescent product generated from the enzyme reaction. Fluorescence intensity is then analyzed at excitation wavelength of 350–360 nm and emission wavelength of 450–460 nm on a SpectraMax M5 microtiter plate reader. The IC50 values were calculated using Prism GraphPad software.

[2] = test system: THP-1, MOLM-13, SEM and MV4-11 cells; assay: Cell cycle analysis, MLLr leukemic cells; format: cell-based; settings: 0.9–2.0 µM
Protocol: THP-1, MOLM-13, SEM and MV4-11 cells were incubated with 1.0 (THP-1, MOLM-13 cells) and 2.0 (SEM and MV4-11 cells) µM of P6 for 72 h. After treatment, cells were collected and fixed with 70% pre-cold ethanol in PBS and stored at −20°C for at least 24 h. Then the cells were stained with […] RNase A for 30 min in the dark at room temperature. Finally, flow cytometry was used to detect the percentage of cells in the sub-G1, G0/G1, S, and G2/M phases with a Beckman Coulter DxFLEX flow cytometer (Florida, Miami, USA). The data was analyzed and fitted by ModFit software.

[3] = test system: SEM cells; assay: In vitro antiproliferative CCK-8 assay, SEM; format: cell-based; settings: 72 h, read-out: IC50 growth inhibition SEM
Protocol: (§2) The proliferation of THP-1, MOLM-13, SEM and MV4-11 cells was tested by CCK-8 assay. Briefly, cells were seeded in 96-well plate with about 5 × 10^3 cells in each well. The cells were treated with P6 or Ara-C (0–10 µM) after 24 h of incubation. CCK-8 reagent ([…]) was added to each well after 72 h of incubation, and cells were incubated at 37°C for 4 h. The light absorbance at 450 nm was measured by using an Opsys microplate reader (Dynex Technologirs, Chantilly, VA, United States). Results are illustrated as percent of cell viability normalized to DMSO-treated control cells.

[4] = test system: MOLM-13 cells; assay: In vitro antiproliferative CCK-8 assay, MOLM-13; format: cell-based; settings: Homo sapiens, 72 h, read-out: IC50 growth inhibition MOLM-13
Protocol: as §2

[5] = test system: THP-1, MOLM-13, SEM and MV4-11 cells; assay: Cell morphology / differentiation (Wright-Giemsa staining); format: cell-based; settings: 72 h
Protocol: THP-1, MOLM-13, SEM and MV4-11 cells were incubated with P6 or Ara-C for 72 h and then collected. Slides were made by cytospin and subsequently air dried. The cells were stained with Wright-Giemsa and observed for morphological features using a light microscope.

[6] = target: T2, SIRT3 (Homo sapiens, UniProt Q9NTG7); assay: SIRT3 enzyme inhibitory assay (fluorescence); format: biochemical; settings: for activity at 0.01 µM / activity at 0.033 µM / activity at 0.1 µM / activity at 0.333 µM / activity at 1 µM / activity at 3.3 µM / activity at 10 µM / activity at 33 µM / activity at 100 µM: SIRT3 enzyme activity; for activity at 0.01 µM: 10 nM; for activity at 0.033 µM: 33 nM; for activity at 0.1 µM: 100 nM; for activity at 0.333 µM: 333 nM
T2 sequence (Q9NTG7 1-399): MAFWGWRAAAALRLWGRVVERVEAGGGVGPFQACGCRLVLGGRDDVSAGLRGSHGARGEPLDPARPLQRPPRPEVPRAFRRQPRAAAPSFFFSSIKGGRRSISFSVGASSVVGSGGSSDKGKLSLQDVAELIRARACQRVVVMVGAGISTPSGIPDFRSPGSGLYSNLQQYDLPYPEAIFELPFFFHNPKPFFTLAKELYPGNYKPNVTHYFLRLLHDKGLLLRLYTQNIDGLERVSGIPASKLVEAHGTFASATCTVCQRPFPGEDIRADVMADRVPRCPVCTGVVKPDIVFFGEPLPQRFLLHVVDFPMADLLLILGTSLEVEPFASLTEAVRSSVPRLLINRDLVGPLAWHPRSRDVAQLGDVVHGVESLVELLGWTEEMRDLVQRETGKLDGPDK
Protocol: as §1

C=CC(=O)Nc1ccc(-c2cc(C(=O)N3CCN(c4ccccc4F)CC3)c3ccccc3n2)cc1 [Compound P6, N-(4-{4-[4-(2-Fluoro-phenyl)-piperazine-1-carbonyl]-quinolin-2-yl}-phenyl)-acrylamide] was tested, and the activity at 0.01 µM ([1]; Repeat1) was 98%, the activity at 0.01 µM ([1]; Repeat2) was 102% and the activity at 0.033 µM ([1]; Repeat1) was 97%. It also gave an activity at 0.033 µM ([1]; Repeat2) of 98%, an activity at 0.1 µM ([1]; Repeat1) of 100% and an activity at 0.1 µM ([1]; Repeat2) of 97%. For the same compound, the activity at 0.333 µM ([1]; Repeat1) was 101%, the activity at 0.333 µM ([1]; Repeat2) was 95% and the activity at 1 µM ([1]; Repeat1) was 97%. The activity at 1 µM ([1]; Repeat2) was 89%, the activity at 3.3 µM ([1]; Repeat1) was 91% and the activity at 3.3 µM ([1]; Repeat2) was 85%. The activity at 10 µM ([1]; Repeat1) was 61%, the activity at 10 µM ([1]; Repeat2) was 64% and the activity at 33 µM ([1]; Repeat1) was 42%. The activity at 33 µM ([1]; Repeat2) was 40%, the activity at 100 µM ([1]; Repeat1) was 25% and the activity at 100 µM ([1]; Repeat2) was 26%. The IC50 ([1]; mean of two experiments) was 32.6 ± 0.8 µM, the “effect on cell cycle progression” value [2] was “capable of causing MLLr leukemic cell cycle arrest at G0/G1 phase” and the IC50 [3] was 1.79 µM. The IC50 [4] was 0.98 µM, the “cell differentiation / morphology” value [5] was “induced the cell differentiation accompanied with morphological changes” and the activity at 0.01 µM ([6]; Repeat1) was 101%. For the same compound, the activity at 0.01 µM ([6]; Repeat2) was 99%, the activity at 0.033 µM ([6]; Repeat1) was 98% and the activity at 0.033 µM ([6]; Repeat2) was 97%. For the same compound, the activity at 0.1 µM ([6]; Repeat1) was 104%, the activity at 0.1 µM ([6]; Repeat2) was 95% and the activity at 0.333 µM ([6]; Repeat1) was 95%. The activity at 0.333 µM ([6]; Repeat2) was 88%, the activity at 1 µM ([6]; Repeat1) was 76% and the activity at 1 µM ([6]; Repeat2) was 74%. For the same compound, the activity at 3.3 µM ([6]; Repeat1) was 61%, the activity at 3.3 µM ([6]; Repeat2) was 59% and the activity at 10 µM ([6]; Repeat1) was 38%. It also gave an activity at 10 µM ([6]; Repeat2) of 38%, an activity at 33 µM ([6]; Repeat1) of 33% and an activity at 33 µM ([6]; Repeat2) of 31%. It also gave an activity at 100 µM ([6]; Repeat1) of 24%, an activity at 100 µM ([6]; Repeat2) of 21% and an inhibition at 10 µM ([6]; dose of 10 μM, mean of three experiments, read-out: SIRT3 percentage inhibitory rate) of 65.2 ± 3.26%. For the same compound, the “selectivity among SIRT1-3” value ([6]; enzyme selectivity test, SIRT3 vs SIRT1 and SIRT2) was “can selectively inhibit SIRT3” and the IC50 ([6]; mean of two experiments) was 7.2 ± 0.5 µM.
